Measurements reported in patent US6376426B1, “Herbicidal 3-(heterocycl-1-yl)-uracils” (BASF Aktiengesellschaft, priority 1999, dated 2002).

Legend:
Type in all cases: in vivo
Matricaria inodora [1] = assay: Pre-emergence herbicidal test, MATIN; conditions: PRE, 21 days after spraying
Description: (§1) To evaluate their herbicidal activity, compounds according to the invention are tested using a representative range of plants:
(§2) The pre-emergence tests involve spraying a liquid formulation of the compound onto the soil in which the seeds of the plant species mentioned above has recently been sown.
(§3) The soil used in the tests is a prepared horticultural loam. The formulations used in the tests are prepared from solutions of the test compounds in acetone containing 0.4% by weight of an alkylphenol/ethylene oxide condensate available under the trade mark TRITON X-155. […] In these tests untreated sown soil are used as controls.
(§4) The herbicidal effects of the test compounds are assessed visually twenty-one days after spraying the foliage and the soil and are recorded on a 0-9 scale. A rating 0 indicates growth as untreated control, a rating 9 indicates death. An increase of 1 unit on the linear scale approximates to a 10% increase in the level of effect.

Stellaria media [2] = assay: Pre-emergence herbicidal test, STEME; parameters: key to herbicidal effect (0-9 scale) STEME / herbicidal rating STEME: A rating 0 indicates growth as untreated control; a rating 9 indicates death; conditions: PRE, 21 days after spraying
Description: as §1, §2, §3, §4

Zea mays [3] = assay: Pre-emergence herbicidal test, ZEAMX; conditions: PRE, 21 days after spraying
Description: as §1, §2, §3, §4

Setaria viridis [4] = assay: Post-emergence herbicidal test, SETVI; conditions: POST, 21 days after spraying
Description: as §1
(§5) […] After spraying, the plants are placed on greenhouse benches and are cared for in the usual manner, commensurate with conventional greenhouse practices.
as §4

Ipomoea hederacea [5] = assay: Post-emergence herbicidal test, IPOHE; parameters: key to herbicidal effect (0-9 scale) IPOHE / herbicidal rating IPOHE: A rating 0 indicates growth as untreated control; a rating 9 indicates death; conditions: POST, 21 days after spraying
Description: as §1, §5, §4

Glycine max [6] = assay: Pre-emergence herbicidal test, GLXMA; parameters: key to herbicidal effect (0-9 scale) GLXMA / herbicidal rating GLXMA: A rating 0 indicates growth as untreated control; a rating 9 indicates death; conditions: PRE, 21 days after spraying
Description: as §1, §2, §3, §4

Matricaria inodora [7] = assay: Post-emergence herbicidal test, MATIN; conditions: POST, 21 days after spraying
Description: as §1, §5, §4

Glycine max [8] = assay: Post-emergence herbicidal test, GLXMA; conditions: 21 days after spraying
Description: as §1, §5, §4

Galium aparine [9] = assay: Post-emergence herbicidal test, GALAP; conditions: POST, 21 days after spraying
Description: as §1, §5, §4

Alopecurus myosuroides [10] = assay: Post-emergence herbicidal test, ALOMY; conditions: 21 days after spraying
Description: as §1, §5, §4

Setaria viridis [11] = assay: Pre-emergence herbicidal test, SETVI; conditions: PRE, 21 days after spraying
Description: as §1, §2, §3, §4

Hordeum vulgare [12] = assay: Pre-emergence herbicidal test, HORVW; conditions: 21 days after spraying
Description: as §1, §2, §3, §4

Stellaria media [13] = assay: Post-emergence herbicidal test, STEME; parameters: key to herbicidal effect (0-9 scale) STEME / herbicidal rating STEME: A rating 0 indicates growth as untreated control; a rating 9 indicates death; conditions: POST, 21 days after spraying
Description: as §1, §5, §4

Alopecurus myosuroides [14] = assay: Pre-emergence herbicidal test, ALOMY; conditions: PRE, 21 days after spraying
Description: as §1, §2, §3, §4

Abutilon theophrasti [15] = assay: Post-emergence herbicidal test, ABUTH; parameters: key to herbicidal effect (0-9 scale) ABUTH / herbicidal rating ABUTH: A rating 0 indicates growth as untreated control; a rating 9 indicates death; conditions: POST, 21 days after spraying
Description: as §1, §5, §4

Echinochloa crus-galli [16] = assay: Post-emergence herbicidal test, ECHCG; conditions: 21 days after spraying
Description: as §1, §5, §4

Galium aparine [17] = assay: Pre-emergence herbicidal test, GALAP; conditions: PRE, 21 days after spraying
Description: as §1, §2, §3, §4

Triticum aestivum [18] = assay: Post-emergence herbicidal test, TRZAW; parameters: key to herbicidal effect (0-9 scale) TRZAW: A rating 0 indicates growth as untreated control; a rating 9 indicates death; conditions: POST, 21 days after spraying
Description: as §1, §5, §4

Hordeum vulgare [19] = assay: Post-emergence herbicidal test, HORVW; conditions: 21 days after spraying
Description: as §1
These acetone solutions are diluted with water and the resulting formulations applied at dosage levels equivalent to about 1000, 800, 400, 250 or 100 g/ha per hectare of test compound per pot. After spraying, the plants are placed on greenhouse benches and are cared for in the usual manner, commensurate with conventional greenhouse practices.
as §4

Abutilon theophrasti [20] = assay: Pre-emergence herbicidal test, ABUTH; parameters: key to herbicidal effect (0-9 scale) ABUTH / herbicidal rating ABUTH: A rating 0 indicates growth as untreated control; a rating 9 indicates death; conditions: PRE, 21 days after spraying
Description: as §1, §2, §3, §4

Triticum aestivum [21] = assay: Pre-emergence herbicidal test, TRZAW; conditions: 21 days after spraying
Description: as §1, §2, §3, §4

Ipomoea hederacea [22] = assay: Pre-emergence herbicidal test, IPOHE; conditions: 21 days after spraying
Description: as §1, §2, §3, §4

Echinochloa crus-galli [23] = assay: Pre-emergence herbicidal test, ECHCG; conditions: 21 days after spraying
Description: as §1, §2, §3, §4

Zea mays [24] = assay: Post-emergence herbicidal test, ZEAMX; conditions: 21 days after spraying
Description: as §1, §5, §4

Cn1c(C(F)(F)F)cc(=O)n(-n2ccc3ccc([N+](=O)[O-])cc32)c1=O [Example 5]
herbicidal effect (0-9 scale) MATIN (Matricaria inodora [1]; 250 g/ha): 7 | herbicidal effect (0-9 scale) MATIN (Matricaria inodora [1]; 1000 g/ha): 8 | herbicidal effect (0-9 scale) STEME (Stellaria media [2]; 250 g/ha): 0 | herbicidal effect (0-9 scale) STEME (Stellaria media [2]; 1000 g/ha): 2 | herbicidal effect (0-9 scale) ZEAMX (Zea mays [3]; 250 g/ha): 4 | herbicidal effect (0-9 scale) ZEAMX (Zea mays [3]; 1000 g/ha): 5 | herbicidal effect (0-9 scale) SETVI (Setaria viridis [4]; 250 g/ha): 7 | herbicidal effect (0-9 scale) SETVI (Setaria viridis [4]; 1000 g/ha): 8 | herbicidal effect (0-9 scale) IPOHE (Ipomoea hederacea [5]; 250 g/ha): 6 | herbicidal effect (0-9 scale) IPOHE (Ipomoea hederacea [5]; 1000 g/ha): 9 | herbicidal effect (0-9 scale) GLXMA (Glycine max [6]; 250 g/ha): 0 | herbicidal effect (0-9 scale) GLXMA (Glycine max [6]; 1000 g/ha): 0 | herbicidal effect (0-9 scale) MATIN (Matricaria inodora [7]; 250 g/ha): 4 | herbicidal effect (0-9 scale) MATIN (Matricaria inodora [7]; 1000 g/ha): 7 | herbicidal effect (0-9 scale) GLXMA (Glycine max [8]; 250 g/ha): 6 | herbicidal effect (0-9 scale) GLXMA (Glycine max [8]; 1000 g/ha): 8 | herbicidal effect (0-9 scale) GALAP (Galium aparine [9]; 250 g/ha): 4 | herbicidal effect (0-9 scale) GALAP (Galium aparine [9]; 1000 g/ha): 6 | herbicidal effect (0-9 scale) ALOMY (Alopecurus myosuroides [10]; 250 g/ha): 1 | herbicidal effect (0-9 scale) ALOMY (Alopecurus myosuroides [10]; 1000 g/ha): 4 | herbicidal effect (0-9 scale) SETVI (Setaria viridis [11]; 250 g/ha): 8 | herbicidal effect (0-9 scale) SETVI (Setaria viridis [11]; 1000 g/ha): 8 | herbicidal effect (0-9 scale) HORVW (Hordeum vulgare [12]; 250 g/ha): 4 | herbicidal effect (0-9 scale) HORVW (Hordeum vulgare [12]; 1000 g/ha): 6 | herbicidal effect (0-9 scale) STEME (Stellaria media [13]; 250 g/ha): 0 | herbicidal effect (0-9 scale) STEME (Stellaria media [13]; 1000 g/ha): 5 | herbicidal effect (0-9 scale) ALOMY (Alopecurus myosuroides [14]; 250 g/ha): 3 | herbicidal effect (0-9 scale) ALOMY (Alopecurus myosuroides [14]; 1000 g/ha): 6 | herbicidal effect (0-9 scale) ABUTH (Abutilon theophrasti [15]; 250 g/ha): 8 | herbicidal effect (0-9 scale) ABUTH (Abutilon theophrasti [15]; 1000 g/ha): 9 | herbicidal effect (0-9 scale) ECHCG (Echinochloa crus-galli [16]; 250 g/ha): 5 | herbicidal effect (0-9 scale) ECHCG (Echinochloa crus-galli [16]; 1000 g/ha): 8 | herbicidal effect (0-9 scale) GALAP (Galium aparine [17]; 250 g/ha): 5 | herbicidal effect (0-9 scale) GALAP (Galium aparine [17]; 1000 g/ha): 8 | herbicidal effect (0-9 scale) TRZAW (Triticum aestivum [18]; 250 g/ha): 0 | herbicidal effect (0-9 scale) TRZAW (Triticum aestivum [18]; 1000 g/ha): 2 | herbicidal effect (0-9 scale) HORVW (Hordeum vulgare [19]; 250 g/ha): 2 | herbicidal effect (0-9 scale) HORVW (Hordeum vulgare [19]; 1000 g/ha): 4 | herbicidal effect (0-9 scale) ABUTH (Abutilon theophrasti [20]; 250 g/ha): 5 | herbicidal effect (0-9 scale) ABUTH (Abutilon theophrasti [20]; 1000 g/ha): 9 | herbicidal effect (0-9 scale) TRZAW (Triticum aestivum [21]; 250 g/ha): 2 | herbicidal effect (0-9 scale) TRZAW (Triticum aestivum [21]; 1000 g/ha): 5 | herbicidal effect (0-9 scale) IPOHE (Ipomoea hederacea [22]; 250 g/ha): 5 | herbicidal effect (0-9 scale) IPOHE (Ipomoea hederacea [22]; 1000 g/ha): 5 | herbicidal effect (0-9 scale) ECHCG (Echinochloa crus-galli [23]; 250 g/ha): 7 | herbicidal effect (0-9 scale) ECHCG (Echinochloa crus-galli [23]; 1000 g/ha): 8 | herbicidal effect (0-9 scale) ZEAMX (Zea mays [24]; 250 g/ha): 2 | herbicidal effect (0-9 scale) ZEAMX (Zea mays [24]; 1000 g/ha): 5
